{"source": "patent US20250163047A1", "about": "“HETEROCYCLIC COMPOUNDS, COMPOSITIONS THEREOF, AND METHODS OF TREATMENT THEREWITH” (BeiGene, Ltd., priority 2022, published 2025)", "key": {"Cbl-b (aa36-427)": {"biological_target": "T1, Cbl-b (aa36-427) (Homo sapiens, UniProt Q13191)", "T1 construct": "Cbl-b (aa36-427, in-house); made in house", "T1 sequence (Q13191 36-427)": "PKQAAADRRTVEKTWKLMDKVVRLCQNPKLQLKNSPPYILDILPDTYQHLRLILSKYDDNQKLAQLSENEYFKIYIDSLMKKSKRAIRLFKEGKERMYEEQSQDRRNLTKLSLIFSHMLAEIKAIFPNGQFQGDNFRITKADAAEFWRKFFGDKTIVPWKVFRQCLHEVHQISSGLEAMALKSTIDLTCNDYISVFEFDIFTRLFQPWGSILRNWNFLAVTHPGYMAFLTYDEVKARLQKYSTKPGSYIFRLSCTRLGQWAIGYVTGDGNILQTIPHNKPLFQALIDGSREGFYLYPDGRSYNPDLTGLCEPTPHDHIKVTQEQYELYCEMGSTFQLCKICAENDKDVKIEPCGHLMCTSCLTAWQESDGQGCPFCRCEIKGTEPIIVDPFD", "assay": "Co-expressed Cbl-b with BirA biochemical assay (CBLB/E2-Ub binding, HTRF)", "conditions": "0.6 nM Cbl-b co-expressed with BirA, HTRF; read-out: co-express CBLB/E2-Ub-binding assay IC50", "excerpt": "(§1) The assay in the absence of a Cbl-b/Cbl inhibitor, where phosphorylation of Cbl-b/Cbl by the Src kinase allows UbcH5B-Ub to bind to Cbl-b/Cbl and brings the Bodipy-Fluorescein tagged ubiquitin in proximity to the streptavidin-terbium bound to the N-terminal biotinylated Avi-tagged Cbl-b/Cbl. […] The lack of a FRET signal indicates Cbl-b/Cbl is inhibited by the Cbl-b/Cbl inhibitor."}, "Cbl (aa49-434)": {"biological_target": "T2, Cbl (aa49-434) (Homo sapiens, UniProt P22681)", "T2 construct": "Cbl (aa49-434, in-house); made in house", "T2 sequence (P22681 49-434)": "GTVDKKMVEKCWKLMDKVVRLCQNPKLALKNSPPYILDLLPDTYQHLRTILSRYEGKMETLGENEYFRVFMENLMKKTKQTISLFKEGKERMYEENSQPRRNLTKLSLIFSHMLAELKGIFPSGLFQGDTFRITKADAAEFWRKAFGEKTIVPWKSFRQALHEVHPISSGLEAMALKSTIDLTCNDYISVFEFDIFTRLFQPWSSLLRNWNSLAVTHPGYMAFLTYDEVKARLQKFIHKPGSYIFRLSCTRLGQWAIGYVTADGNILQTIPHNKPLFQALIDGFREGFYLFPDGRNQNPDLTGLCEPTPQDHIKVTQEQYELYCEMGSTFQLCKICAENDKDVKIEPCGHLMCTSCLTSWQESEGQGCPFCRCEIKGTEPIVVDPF", "assay": "Co-expressed Cbl with BirA biochemical assay (CBL/E2-Ub binding, HTRF)", "conditions": "0.6 nM Cbl co-expressed with BirA, read-out: co-express CBL/E2-Ub-binding assay IC50", "excerpt": "as §1"}}, "data": [{"compound": "Cn1cnnc1[C@]1(c2cncc(NC(=O)c3cc(CNCC4CCC4)c4[nH]cc(Cl)c4n3)c2)C[C@H](C)C1", "note": "[Compound B53, 3-chloro-7-(((cyclobutylmethyl)amino)methyl)-N-(5-((1s, 3s)-3-methyl-1-(4-methyl-4H-1,2,4-triazol-3-yl)cyclobutyl)pyridin-3-yl)-1H-pyrrolo[3,2-b]pyridine-5-carboxamide]", "values": [{"measurement": "IC50", "setting": "Cbl-b (aa36-427)", "result": 3.1, "unit": "nM"}, {"measurement": "IC50", "setting": "Cbl (aa49-434)", "result": 9.7, "unit": "nM"}]}, {"compound": "Cn1cnnc1[C@]1(c2cccc(NC(=O)c3cc(CNCC4CCC(F)(F)C4)c4c(n3)C(C)(C)CC4)c2)C[C@H](CC#N)C1", "note": "(stereo partly drawn) [Compound C16, N-(3-((1s, 3s)-3-(cyanomethyl)-1-(4-methyl-4H-1,2,4-triazol-3-yl)cyclobutyl)phenyl)-4-((((3,3-difluorocyclopentyl)methyl)amino)methyl)-7,7-dimethyl-6,7-dihydro-5H-cyclopenta[b]pyridine-2-carboxamide]", "values": [{"measurement": "IC50", "setting": "Cbl-b (aa36-427)", "result": 1.7, "unit": "nM"}, {"measurement": "IC50", "setting": "Cbl (aa49-434)", "result": 5.3, "unit": "nM"}]}, {"compound": "C[C@H]1CCCN(Cc2cc(C(=O)Nc3cccc([C@]4(c5nncn5C)C[C@@H](CC#N)C4)c3)nn3cccc23)C1", "note": "[Compound B14, 4-{[(3S)-3-methylpiperidin-1-yl]methyl}-N-{3-[(1s, 3s)-3-(cyanomethyl)-1-(4-methyl-1,2,4-triazol-3-yl)cyclobutyl]phenyl}pyrrolo[1,2-b]pyridazine-2-carboxamide]", "values": [{"measurement": "IC50", "setting": "Cbl-b (aa36-427)", "result": 13.6, "unit": "nM"}, {"measurement": "IC50", "setting": "Cbl (aa49-434)", "result": 89.9, "unit": "nM"}]}, {"compound": "C[C@H](NCc1cc(C(=O)Nc2cccc([C@]3(c4nncn4C)C[C@@H](CC#N)C3)c2)nc2cc[nH]c12)C1CC1", "note": "[Compound B28, N-(3-((1s,3R)-3-(cyanomethyl)-1-(4-methyl-4H-1,2,4-triazol-3-yl)cyclobutyl)phenyl)-7-((((S)-1-cyclopropylethyl)amino)methyl)-1H-pyrrolo[3,2-b]pyridine-5-carboxamide]", "values": [{"measurement": "IC50", "setting": "Cbl-b (aa36-427)", "result": 0.8, "unit": "nM"}, {"measurement": "IC50", "setting": "Cbl (aa49-434)", "result": 2.2, "unit": "nM"}]}, {"compound": "C[C@H](NCc1cc(C(=O)Nc2cncc([C@]3(c4nncn4C)C[C@@H](C)C3)c2)nc2c1CCC2(F)F)C1CCC1", "note": "[Compound C41, 4-({[(1S)-1-cyclobutylethyl]amino}methyl)-7,7-difluoro-N-{5-[(1r, 3s)-3-methyl-1-(4-methyl-1,2,4-triazol-3-yl)cyclobutyl]pyridin-3-yl}-5H,6H-cyclopenta[b]pyridine-2-carboxamide]", "values": [{"measurement": "IC50", "setting": "Cbl-b (aa36-427)", "result": 1.5, "unit": "nM"}, {"measurement": "IC50", "setting": "Cbl (aa49-434)", "result": 7, "unit": "nM"}]}, {"compound": "Cn1cnnc1[C@]1(c2cccc(NC(=O)c3cc(CNCC4(C)CCC4)c4c(n3)C(C)(C)CO4)c2)C[C@H](CC#N)C1", "note": "[Compound C25, N-(3-((1s, 3s)-3-(cyanomethyl)-1-(4-methyl-4H-1,2,4-triazol-3-yl)cyclobutyl)phenyl)-3,3-dimethyl-7-((((1-methylcyclobutyl)methyl)amino)methyl)-2,3-dihydrofuro[3,2-b]pyridine-5-carboxamide]", "values": [{"measurement": "IC50", "setting": "Cbl-b (aa36-427)", "result": 2.8, "unit": "nM"}, {"measurement": "IC50", "setting": "Cbl (aa49-434)", "result": 49.5, "unit": "nM"}]}, {"compound": "Cn1cnnc1[C@]1(c2cccc(NC(=O)c3cc(CNC4(C)CC4)cn4ncnc34)c2)C[C@H](CC#N)C1", "note": "[Compound A89, N-(3-((1s, 3s)-3-(cyanomethyl)-1-(4-methyl-4H-1,2,4-triazol-3-yl)cyclobutyl)phenyl)-6-(((1-methylcyclopropyl)amino)methyl)-[1,2,4]triazolo[1,5-a]pyridine-8-carboxamide]", "values": [{"measurement": "IC50", "setting": "Cbl-b (aa36-427)", "result": 1.7, "unit": "nM"}, {"measurement": "IC50", "setting": "Cbl (aa49-434)", "result": 45, "unit": "nM"}]}, {"compound": "Cn1ccc2nc(C(=O)Nc3cccc([C@]4(c5nncn5C)C[C@@H](CC#N)C4)c3)cc(CNC3(C)CCC3)c21", "note": "[Compound B56, N-(3-((1s, 3s)-3-(cyanomethyl)-1-(4-methyl-4H-1,2,4-triazol-3-yl)cyclobutyl)phenyl)-1-methyl-7-(((1-methylcyclobutyl)amino)methyl)-1H-pyrrolo[3,2-b]pyridine-5-carboxamide]", "values": [{"measurement": "IC50", "setting": "Cbl-b (aa36-427)", "result": 1.4, "unit": "nM"}, {"measurement": "IC50", "setting": "Cbl (aa49-434)", "result": 32, "unit": "nM"}]}, {"compound": "Cn1cnnc1[C@]1(c2cccc(NC(=O)c3cc(CNC4(C)CC4)cn4c(F)cnc34)c2)C[C@H](C)C1", "note": "[Compound A45, 3-fluoro-N-(3-((1s, 3s)-3-methyl-1-(4-methyl-4H-1,2,4-triazol-3-yl)cyclobutyl)phenyl)-6-(((1-methylcyclopropyl)amino)methyl)imidazo[1,2-a]pyridine-8-carboxamide]", "values": [{"measurement": "IC50", "setting": "Cbl-b (aa36-427)", "result": 1.2, "unit": "nM"}, {"measurement": "IC50", "setting": "Cbl (aa49-434)", "result": 3.5, "unit": "nM"}]}]}
